Experimental data: PMC8269283 (ACS chemical neuroscience, 2018)
Where two headings read alike, the source gives them in different places.

Tests used:
SERT [1] = settings: cited from earlier work
DAT [2] = settings: cited from earlier work
DAT [3] = target: T1, DAT (Rattus norvegicus, UniProt P23977); assay: transporter-mediated release in rat brain synaptosomes, DAT; type: biochemical; settings: for DAT vs SERT Selectivity: SERT EC50 ÷ DAT EC50
SERT [4] = target: T2, SERT (Rattus norvegicus, UniProt P31652); assay: transporter-mediated release in rat brain synaptosomes, SERT; type: biochemical
T2 sequence (P31652 whole entry): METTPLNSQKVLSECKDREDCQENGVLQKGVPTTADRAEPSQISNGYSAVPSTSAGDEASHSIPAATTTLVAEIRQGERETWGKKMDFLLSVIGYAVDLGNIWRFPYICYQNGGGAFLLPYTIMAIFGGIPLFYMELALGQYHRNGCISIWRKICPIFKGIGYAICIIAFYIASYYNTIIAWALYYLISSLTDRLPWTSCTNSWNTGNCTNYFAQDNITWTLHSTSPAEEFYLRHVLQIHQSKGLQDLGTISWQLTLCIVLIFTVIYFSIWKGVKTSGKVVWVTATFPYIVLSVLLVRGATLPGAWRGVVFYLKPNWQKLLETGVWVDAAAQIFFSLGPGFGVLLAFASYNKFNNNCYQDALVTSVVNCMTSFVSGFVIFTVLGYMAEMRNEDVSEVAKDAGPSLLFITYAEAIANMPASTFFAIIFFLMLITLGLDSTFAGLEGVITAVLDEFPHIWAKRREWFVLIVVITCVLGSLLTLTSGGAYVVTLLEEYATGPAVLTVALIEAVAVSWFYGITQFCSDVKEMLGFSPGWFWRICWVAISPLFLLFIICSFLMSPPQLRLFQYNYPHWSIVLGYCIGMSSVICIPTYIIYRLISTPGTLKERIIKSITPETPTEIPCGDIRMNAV

NET [5] = target: NET (Rattus norvegicus, UniProt Q63380); settings: read-out: EC50 as NET releasing agent, previously reported; cited from earlier work
Chain of NET (Rattus norvegicus, UniProt Q63380) (Q63380 1-617): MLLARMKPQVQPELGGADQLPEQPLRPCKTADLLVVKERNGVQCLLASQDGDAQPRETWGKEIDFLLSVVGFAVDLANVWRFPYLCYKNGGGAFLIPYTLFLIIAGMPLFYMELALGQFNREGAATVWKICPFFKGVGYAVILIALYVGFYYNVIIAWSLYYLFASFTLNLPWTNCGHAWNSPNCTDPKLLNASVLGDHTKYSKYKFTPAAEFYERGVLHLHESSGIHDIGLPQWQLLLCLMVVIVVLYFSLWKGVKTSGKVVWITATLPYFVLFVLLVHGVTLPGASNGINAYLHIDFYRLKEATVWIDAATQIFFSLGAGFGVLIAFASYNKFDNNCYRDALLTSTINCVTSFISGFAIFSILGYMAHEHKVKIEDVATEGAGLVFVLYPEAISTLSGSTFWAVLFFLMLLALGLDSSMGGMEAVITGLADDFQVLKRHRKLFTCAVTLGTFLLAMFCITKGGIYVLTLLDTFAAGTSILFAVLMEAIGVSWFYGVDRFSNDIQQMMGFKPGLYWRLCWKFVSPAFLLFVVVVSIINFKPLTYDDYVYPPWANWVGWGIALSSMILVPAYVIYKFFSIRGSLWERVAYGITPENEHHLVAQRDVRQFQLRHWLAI

DAT [6] = target: T1, DAT; settings: cited from earlier work
SERT [7] = target: T2, SERT; settings: cited from earlier work
SERT [8] = settings: read-out: IC50 reuptake inhibitor at SERT; cited from earlier work
NET [9] = settings: read-out: IC50 reuptake inhibitor at NET; cited from earlier work
NET [10] = settings: read-out: IC50 reuptake inhibitor at NET; cited from earlier work; remark: listed apart in the source
SERT [11] = settings: read-out: IC50 reuptake inhibitor at SERT; cited from earlier work; remark: listed apart in the source
DAT [12] = settings: read-out: IC50 reuptake inhibitor at DAT; cited from earlier work

T1 sequence (P23977 whole entry): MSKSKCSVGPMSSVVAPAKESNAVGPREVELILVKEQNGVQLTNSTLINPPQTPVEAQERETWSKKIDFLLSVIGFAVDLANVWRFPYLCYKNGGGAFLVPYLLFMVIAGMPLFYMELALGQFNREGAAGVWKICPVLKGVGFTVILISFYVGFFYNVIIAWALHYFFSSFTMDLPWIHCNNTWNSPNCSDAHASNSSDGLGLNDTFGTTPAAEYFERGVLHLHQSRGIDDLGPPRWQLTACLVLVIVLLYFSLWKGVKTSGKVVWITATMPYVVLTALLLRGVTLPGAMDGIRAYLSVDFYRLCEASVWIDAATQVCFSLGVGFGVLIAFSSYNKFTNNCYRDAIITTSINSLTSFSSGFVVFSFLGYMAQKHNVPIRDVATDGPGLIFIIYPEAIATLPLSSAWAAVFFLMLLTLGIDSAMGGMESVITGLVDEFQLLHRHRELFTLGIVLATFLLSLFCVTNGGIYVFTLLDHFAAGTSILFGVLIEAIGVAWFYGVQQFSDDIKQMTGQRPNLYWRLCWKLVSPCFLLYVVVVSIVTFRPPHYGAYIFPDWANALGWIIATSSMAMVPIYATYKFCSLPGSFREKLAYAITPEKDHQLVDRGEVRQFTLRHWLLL

CNC(C)C(=O)c1ccccc1C(F)(F)F (stereo not drawn) [2-CF3 analog]
less potent than 3e as a releasing agent at SERT (SERT [1]): > 10 fold
less potent than 3e as a releasing agent at DAT (DAT [2]): > 10 fold

CNC(C)C(=O)c1ccccc1Cl.Cl (stereo not drawn) [2a, 1-(2-Chlorophenyl)-2-(methylamino)propan-1-one Hydrochloride]
EC50 (DAT [3]): 179 nM
DAT vs SERT Selectivity (DAT [3]; 2-substituted series): 16
EC50 (SERT [4]): 2810 nM

CNC(C)C(=O)c1ccccc1Br.Cl (stereo not drawn) [2b, 1-(2-Bromophenyl)-2-(methylamino)propan-1-one Hydrochloride]
EC50 (DAT [3]): 650 nM
DAT vs SERT Selectivity (DAT [3]; 2-substituted series): 4
EC50 (SERT [4]): 2840 nM

CNC(C)C(=O)c1ccccc1C.Cl (stereo not drawn) [2c, 2-(Methylamino)-1-(2-methylphenyl)propan-1-one Hydrochloride]
EC50 (DAT [3]): 81 nM
DAT vs SERT Selectivity (DAT [3]; 2-substituted series): 6
EC50 (SERT [4]): 490 nM

CNC(C)C(=O)c1ccccc1OC.Cl (stereo not drawn) [2d, 1-(2-Methoxyphenyl)-2-(methylamino)propan-1-one Hydrochloride]
EC50 (DAT [3]): 920 nM
DAT vs SERT Selectivity (DAT [3]; 2-substituted series): 8
EC50 (SERT [4]): 7220 nM

CNC(C)C(=O)c1cccc(Cl)c1 (stereo not drawn) [3a, 3-Chloromethcathinone]
EC50 (NET [5]): 40 nM
DAT vs SERT Selectivity (DAT [3]; 3-substituted series): 8
EC50 (DAT [6]; read-out: EC50 as DAT releasing agent, previously reported): 29 nM
EC50 (SERT [7]; read-out: EC50 as SERT releasing agent, previously reported): 212 nM

CNC(C)C(=O)c1cccc(Br)c1.Cl (stereo not drawn) [3b, 1-(3-Bromophenyl)-2-(methylamino)propan-1-one Hydrochloride]
IC50 (SERT [8]): 2000 nM
EC50 (DAT [3]): 21 nM
DAT vs SERT Selectivity (DAT [3]; 3-substituted series): 6
EC50 (SERT [4]): 136 nM
IC50 (NET [9]): 158 nM

CNC(C)C(=O)c1cccc(C)c1.Cl (stereo not drawn) [3c, 2-(Methylamino)-1-(3-methylphenyl)propan-1-one Hydrochloride]
IC50 (NET [10]): 270 nM
IC50 (SERT [11]): 9.5 µM
EC50 (DAT [3]): 28 nM
DAT vs SERT Selectivity (DAT [3]; 3-substituted series): 10
IC50 (DAT [12]): 2600 nM
EC50 (SERT [4]): 268 nM

CNC(C)C(=O)c1cccc(OC)c1.Cl (stereo not drawn) [3d, 2-(Methylamino)-1-(3-methoxyphenyl)propan-1-one Hydrochloride]
EC50 (DAT [3]): 109 nM
DAT vs SERT Selectivity (DAT [3]; 3-substituted series): 6
EC50 (SERT [4]): 683 nM

CNC(C)C(=O)c1cccc(C(F)(F)F)c1.Cl (stereo not drawn) [3e, 2-(Methylamino)-1-(3-(trifluoromethyl)phenyl)propan-1-one Hydrochloride]
EC50 (DAT [3]): 714 nM
DAT vs SERT Selectivity (DAT [3]; 3-substituted series): 0.4
EC50 (SERT [4]): 281 nM

CNC(C)C(=O)c1ccc(C(F)(F)F)cc1 (stereo not drawn) [4e]
SERT selectivity (SERT vs DAT) as a releasing agent (SERT [7]): 14 fold

CNC(C)C(=O)c1ccccc1 (stereo not drawn) [compound 1, Methcathinone]
DAT vs SERT Selectivity (DAT [3]; 2-substituted series): 103
DAT vs SERT Selectivity (DAT [3]; 3-substituted series): 279
selectivity for DAT vs SERT as a releasing agent (DAT [6]): > 300 fold
